Experiment: molar heat capacity at constant pressure; mn = molality of the nth substance listed, in mol/kg
Conditions: 350 kPa, Liquid, high-precision DSC

CSCC[C@H](N)C(=O)O [L-methionine] + O
molar heat capacity at constant pressure [J/K/mol]
Conditions	m1 = 0.0125	m1 = 0.025	m1 = 0.05	m1 = 0.0997	m1 = 0.1501	m1 = 0.1929
278.15 K	75.75	75.8	75.86	76.01	76.17	76.3
283.15 K	75.58	75.64	75.71	75.87	76.04	76.19
288.15 K	75.47	75.53	75.6	75.78	75.96	76.12
293.15 K	75.39	75.46	75.53	75.72	75.92	76.08
298.15 K	75.34	75.41	75.49	75.69	75.89	76.06
303.15 K	75.31	75.38	75.46	75.67	75.88	76.05
308.15 K	75.3	75.37	75.45	75.66	75.88	76.05
313.15 K	75.3	75.37	75.46	75.67	75.9	76.06
318.15 K	75.31	75.38	75.47	75.68	75.92	76.09
323.15 K	75.33	75.4	75.5	75.71	75.95	76.12
328.15 K	75.37	75.44	75.53	75.75	75.99	76.16
333.15 K	75.41	75.48	75.57	75.79	76.03	76.21
338.15 K	75.45	75.53	75.62	75.84	76.08	76.26
343.15 K	75.51	75.59	75.68	75.9	76.13	76.32
348.15 K	75.58	75.65	75.75	75.96	76.2	76.38
353.15 K	75.65	75.72	75.82	76.03	76.27	76.46
358.15 K	75.73	75.8	75.9	76.11	76.35	76.54
363.15 K	75.82	75.88	75.98	76.2	76.43	76.62
368.15 K	75.91	75.98	76.08	76.29	76.53	76.71
373.15 K	76.01	76.08	76.18	76.39	76.63	76.81
378.15 K	76.13	76.19	76.29	76.5	76.74	76.92
383.15 K	76.24	76.31	76.41	76.62	76.85	77.03
388.15 K	76.38	76.45	76.54	76.74	76.98	77.15
393.15 K	76.52	76.6	76.68	76.88	77.11	77.28

From the NIST ThermoML archive (doi:10.1016/j.jct.2006.07.018)
